Reference: patent publication US5563176A (priority 1994, dated 1996)
Several values for one entry are separate records, joined by “and”; a condition that tells them apart may be missing. Equal values may be shown once. Read-outs that look alike come from different tables or passages of the source.

Legend:
HL-60 cells = test: cells; assay type: cell-based, human
HL60 cells (myeloid) = test: cells; assay type: cell-based, human; conditions: for IC50: Homo sapiens, HL-60, 2 h, read-out: Two hour IC50
8392 cells (B-cell) = test: cells; assay type: cell-based; conditions: 2 h, read-out: Two hour IC50
MV522 cells = test: cells; assay type: cell-based, human; conditions: for IC50: Homo sapiens, MV522, 2 h, read-out: Two hour IC50
HL60 cells = test: cells; assay type: cell-based; conditions: Homo sapiens, HL-60, 48 h, read-out: 48 hour IC50
8392 cells = test: cells; assay type: cell-based; conditions: 48 h, read-out: 48 hour IC50
MV522 = test: cells; assay type: cell-based; conditions: Homo sapiens, MV522, 48 h, read-out: 48 hour IC50
[1] = test system: human lung adenocarcinoma MV522; conditions: in vivo
[2] = test system: human lung adenocarcinoma MV522; test: animal or person; conditions: MV522, ip, read-out: life span
[3] = test system: HL60/MRI cells (human myeloid leukemia tumor cells); conditions: in vivo, iv

## CC1=Cc2cc(C)c(C)c(C)c2C1=O [2,5,6,7-tetramethyl-1-indenone, 2,5,6,7-Tetramethyl-1-Indenone]
HL-60 cells; Homo sapiens, HL-60
  IC50: 475 nM

## CC1=C(Cc2ccc(O)cc2)C2=C(C)C3(CC3)[C@@](C)(O)C(=O)C2=C1 [6-(p-hydroxybenzyl)acylfulvene, 6-(p-Hydroxybenzyl)acylfulvene]
HL60 cells (myeloid)
  IC50: 264 ± 38 nM
8392 cells (B-cell)
  IC50: 95200 nM
MV522 cells
  IC50: 1180 nM
HL60 cells
  IC50: 382 ± 39 nM
8392 cells
  IC50: 11100 nM
MV522
  IC50: 615 ± 56 nM
[1]
  efficacy in this model: effective in this model
[2]
  response vs control in vivo at 15 mg/kg: 125 ± 16%
  response vs control in vivo at 20 mg/kg: 126 ± 22%

## COc1ccc(CC2=C(C)C=C3C(=O)[C@](C)(O)C4(CC4)C(C)=C32)cc1 [6-(p-methoxybenzyl)acylfulvene]
HL60 cells (myeloid)
  IC50: 1960 nM
8392 cells (B-cell)
  IC50: 35700 nM
MV522 cells
  IC50: 2040 nM
HL60 cells
  IC50: 1050 nM
8392 cells
  IC50: 7140 nM
MV522
  IC50: 1550 nM

## CC(=O)OCC1=C(C)C=C2C(=O)[C@](C)(O)C3(CC3)C(C)=C21 [6-acetoxymethylacylfulvene]
HL60 cells (myeloid)
  IC50: 3330 nM
8392 cells (B-cell)
  IC50: 47500 nM
MV522 cells
  IC50: 1070 nM
HL60 cells
  IC50: 806 ± 30 nM
8392 cells
  IC50: 4430 nM
MV522
  IC50: 486 ± 42 nM

## CC1=C(Br)C2=C(C)C3(CC3)[C@@](C)(O)C(=O)C2=C1 [6-bromoacylfulvene, 6-Bromoacylfulvene]
HL60 cells (myeloid)
  toxicity to target tumor cells: markedly toxic
  IC50: 803 ± 88 nM
MV522 cells
  toxicity to target tumor cells: markedly toxic
  IC50: 4180 nM
HL60 cells
  IC50: 412 ± 21 nM
8392 cells
  IC50: 1190 nM
MV522
  IC50: 356 ± 61 nM
[1]
  efficacy in this model: effective in this model

## CC1=C(I)C2=C(C)C3(CC3)[C@@](C)(O)C(=O)C2=C1 [6-iodoacylfulvene, 6-Iodoacylfulvene]
HL60 cells (myeloid)
  toxicity to target tumor cells: markedly toxic
  IC50: 2600 nM
8392 cells (B-cell)
  IC50: 10300 nM
MV522 cells
  toxicity to target tumor cells: markedly toxic
  IC50: 956 ± 152 nM
HL60 cells
  IC50: 290 ± 12 nM
8392 cells
  IC50: 1700 nM
MV522
  IC50: 556 ± 47 nM
[2]
  response vs control in vivo at 20 mg/kg: 120 ± 34%

## COc1cccc2c1C(=O)c1c(O)c3c(c(O)c1C2=O)C[C@@](O)(C(=O)CO)C[C@@H]3O[C@H]1C[C@H](N)[C@H](O)[C@H](C)O1 [Adriamycin]
[1]
  life span versus control: no significant increase in the life span
[1]; ip, 2.6 mg/kg
  life span: 98 ± 12% and 150 ± 25%

## C[C@@]1(CO)[C@H](O)CC[C@@]2(C)[C@H]1CC[C@H]1C[C@@H]3C[C@@]12CC[C@]3(O)CO [Aphidocolin]
HL-60 cells; read-out: IC50
  IC50: 2100 nM

## O=NN(CCCl)C(=O)NCCCl [BCNU]
HL-60 cells; Homo sapiens, HL-60
  IC50: 23300 nM

## CC1=CC2=C(C)C3(CC3)[C@@](C)(O)C(=O)C2=C1 [Illudofulvene]
HL60 cells (myeloid)
  IC50: 998 ± 244 nM
8392 cells (B-cell)
  IC50: 66.4 nM
MV522 cells
  IC50: 727 ± 180 nM
HL-60 cells; Homo sapiens, HL-60
  IC50: 500 nM
HL60 cells
  IC50: 364 ± 74 nM
8392 cells
  IC50: 833 ± 152 nM
MV522
  IC50: 349 ± 23 nM
[3]
  adverse effects (food or water intake, body weight): did not display any evidence of adverse effect
  inhibition of tumor growth: effective at inhibiting tumor growth

## Cc1cc2c(c(C)c1CCO)C(=O)[C@@H](C)[C@@H]2O [Pterosin C]
HL-60 cells; read-out: IC50
  IC50: 12500 nM

## CO[C@@]12[C@H](COC(N)=O)C3=C(C(=O)C(C)=C(N)C3=O)N1C[C@@H]1N[C@@H]12 [mitomycin C]
[1]
  life span versus control: no significant increase in the life span
[1]; ip, 2.4 mg/kg
  life span: 111 ± 2% and 149 ± 12%

## CC(=O)O[C@H]1C(=O)[C@@]2(C)[C@H]([C@H](OC(=O)c3ccccc3)[C@]3(O)C[C@H](OC(=O)[C@H](O)[C@@H](NC(=O)c4ccccc4)c4ccccc4)C(C)=C1C3(C)C)[C@]1(OC(C)=O)CO[C@@H]1C[C@@H]2O [taxol]
[1]
  life span versus control: no significant increase in the life span
  tumor growth response: failed to inhibit tumor growth
[1]; ip, 4 mg/kg
  life span: 120 ± 10%
[1]; ip, 6 mg/kg
  drug toxicity: drug toxicity was now killing the animals
[2]
  response vs control in vivo at 4 mg/kg: 100 ± 10%
  response vs control in vivo at 6 mg/kg: 93 ± 22%
  response vs control in vivo at 20 mg/kg: 113 ± 22%
